This note sets out measurements from patent US4406883A, “Controlled release suppositories consisting essentially of a linear polymer particularly, polyvinyl pyrrolidones” (Merrell Dow Pharmaceuticals Inc., priority 1981, dated 1983).

Where a name gives a salt, the structure may show the parent alone. Read-outs that look alike come from different tables or passages of the source.

Data set [1] in a line: In vitro trial: drug release from extruded suppositories in 150 ml water at 37° C. The class given is physicochemical. The conditions noted are these: phenylephrine hydrochloride vs lignocaine hydrochloride, alone and together (FIGS. 6-8).
Method: Mixes for the in vivo and the in vitro trails were made by dissolving the required quantities of drug in water which was then added to the polymer and thoroughly mixed using a spatula. […] The resulting damp, spongy particles were squeezed together by hand to form a dough-like mixture. The mixes were extruded through a nozzle of a 50 ml plastic syringe to form a long rod (9 mm diameter). Immediately after, suppositories were made by cutting the rod into 3 cm length and were stored in an air-tight container prior to use.
Drug release rates were studied in four ways:
(i) release from suppositories containing 20 mg phenylephrine hydrochloride only (in duplicate).
(iii) release from suppositories containing both drugs in the above amounts (in triplicate).
The concentration of drug in the aliquot was immediately determined spectrophotometrically (q.v.) after which the aliquot sample was returned to the solution. […]
Analytical background effects (due to the polymer) were measured by repeating the spectrophotometric procedure using a suppository containing no drug. […]
The absorbences of the samples taken during the in vitro trial were measured on the spectrophotometer and the concentrations of the dissolved drugs determined by reference to the calibration curves.
Drug release rates were measured in the in vitro trials for suppositories containing each drug alone and both drugs together. […]
For data set [2] the following is noted: male beagle.
Method: Four smaller pieces were randomly cut from the remainder and placed into weighed vials. Distilled water (10 ml) was added to each vial and the contents were allowed to dissolve overnight. Triplicate aliquots (0.1 ml) were removed for the determination of radioactivity as for plasma.
The evacuated suppository was separated from the faecal pellet and weighed. The sample was then homogenised with a known quantity of purified sand (sand to sample ratio, 2:1).
Four pieces of the sand/suppository mixture were placed in weighed vials. Distilled water (4 ml) was added to each vial and the contents were allowed to dissolve overnight. Unisolve 1 (10 ml) was added and the resulting translucent gel was mixed by vigorous shaking. The samples were assayed for radioactivity.
They were then re-weighed and the moisture content of the evacuated suppository was determined.
The mark [3] stands for this setting: male beagle, rectal, dose 38.93 μCi.

On to `CCN(CC)CC(=O)Nc1c(C)cccc1C` [lignocaine hydrochloride], for which, in data set [1], the “proportion of drug released, comparison of drugs” value is “approximately the same”.
Same read-out and setting: then `CNC[C@H](O)c1cccc(O)c1` [phenylephrine hydrochloride], with “approximately the same”.
As for [^14 C]-lignocaine hydrochloride, the “time of maximum plasma concentration of radioactivity” value (dog, rectal) amounted to 8 h. Further, the “maximum plasma concentration of radioactivity” value (dog, rectal, at 8 h) is listed as 0.00295 %/ml of the administered radioactive dose. For the setting “male beagle, 48 h”, the “% total administered dose, liver” value was 0.36%; the “% total administered dose, rectal contents” value was 0.086%; the “% total administered dose, rectum” value was found to be 0.026%; the “cumulative % total administered dose, through liver” value was 0.375%. Also, for the setting “male beagle, 48 h”, the “cumulative % total administered dose, through rectal contents” value is recorded as 0.487%; the “cumulative % total administered dose, through rectum” value stood at 0.401%; the “cumulative % total administered dose, through urine and faeces” value was 48.687%; the “total radioactivity recovered, bile” value was 0.006 μCi. For the same compound, where the note is “male beagle, 48 h”, the “total radioactivity recovered, liver” value came out at 0.14 μCi; the “total radioactivity recovered, rectal contents” value worked out at 0.03 μCi; the “total radioactivity recovered, rectum” value amounted to 0.01 μCi; the “total radioactivity recovered, urine and faeces” value amounted to 18.77 μCi. Also, where the note is “male beagle, rectal, 0 h”, the “concentration of radioactivity in plasma” value is 0 % administered radioactive dos and the “radioactive drug equivalents in plasma” value was 0 μg equivalents/ml plasma. For the same compound, where the note is “male beagle, rectal, 0.5 h”, the “concentration of radioactivity in plasma” value is recorded as 0.00081 % administered radioactive dos and the “radioactive drug equivalents in plasma” value is 0.75 μg equivalents/ml plasma. Besides, where the note is “male beagle, rectal, 1 h”, the “concentration of radioactivity in plasma” value is 0.0014 % administered radioactive dos and the “radioactive drug equivalents in plasma” value stood at 1.33 μg equivalents/ml plasma. In addition, for the setting “male beagle, rectal, 2 h”, the “concentration of radioactivity in plasma” value is on record as 0.0022 % administered radioactive dos and the “radioactive drug equivalents in plasma” value is listed as 2.08 μg equivalents/ml plasma. Further, under “male beagle, rectal, 4 h”, the “concentration of radioactivity in plasma” value is on record as 0.00291 % administered radioactive dos and the “radioactive drug equivalents in plasma” value is 2.72 μg equivalents/ml plasma. Further, for the setting “male beagle, rectal, 8 h”, the “concentration of radioactivity in plasma” value is on record as 0.00295 % administered radioactive dos and the “radioactive drug equivalents in plasma” value is given as 2.75 μg equivalents/ml plasma. Where the note is “male beagle, rectal, 24 h”, the “concentration of radioactivity in plasma” value was 0.00267 % administered radioactive dos and the “radioactive drug equivalents in plasma” value is reported as 2.49 μg equivalents/ml plasma. For the same compound, under “male beagle, rectal, 48 h”, the “concentration of radioactivity in plasma” value is recorded as 0.00062 % administered radioactive dos and the “radioactive drug equivalents in plasma” value amounted to 0.58 μg equivalents/ml plasma. Also, the “total radioactivity excreted, total” value (male beagle, rectal, 48 h, dose 38.93 μCi) is listed as 18.77 μCi. Besides, under setting [3], the “total radioactivity excreted, 0-24 h urine” value is reported as 13.45 μCi; the “total radioactivity excreted, 24-48 h urine” value amounted to 2.19 μCi; the “total radioactivity excreted, total faeces” value was found to be 3.13 μCi. Further, in data set [2], the “% total administered dose in evacuated suppository” value is on record as 27.58%. Besides, the “radioactive dose remaining in evacuated suppository” value in data set [2] (dose 38.93 μCi) is reported as 10.74 μCi.
